Data: ChEMBL document CHEMBL2311536 (J Med Chem, 2013)
The source made the active and inactive calls. The rule behind the calls is not given here.

Legend:
[1] = target: T1, Lysine-specific demethylase 2A (Homo sapiens) (UniProt Q9Y2K7); experiment: Displacement of 2OG from FBXL11 (1 to 517) (unknown origin) expressed in Escherichia coli at 800 uM
T1 sequence (whole entry): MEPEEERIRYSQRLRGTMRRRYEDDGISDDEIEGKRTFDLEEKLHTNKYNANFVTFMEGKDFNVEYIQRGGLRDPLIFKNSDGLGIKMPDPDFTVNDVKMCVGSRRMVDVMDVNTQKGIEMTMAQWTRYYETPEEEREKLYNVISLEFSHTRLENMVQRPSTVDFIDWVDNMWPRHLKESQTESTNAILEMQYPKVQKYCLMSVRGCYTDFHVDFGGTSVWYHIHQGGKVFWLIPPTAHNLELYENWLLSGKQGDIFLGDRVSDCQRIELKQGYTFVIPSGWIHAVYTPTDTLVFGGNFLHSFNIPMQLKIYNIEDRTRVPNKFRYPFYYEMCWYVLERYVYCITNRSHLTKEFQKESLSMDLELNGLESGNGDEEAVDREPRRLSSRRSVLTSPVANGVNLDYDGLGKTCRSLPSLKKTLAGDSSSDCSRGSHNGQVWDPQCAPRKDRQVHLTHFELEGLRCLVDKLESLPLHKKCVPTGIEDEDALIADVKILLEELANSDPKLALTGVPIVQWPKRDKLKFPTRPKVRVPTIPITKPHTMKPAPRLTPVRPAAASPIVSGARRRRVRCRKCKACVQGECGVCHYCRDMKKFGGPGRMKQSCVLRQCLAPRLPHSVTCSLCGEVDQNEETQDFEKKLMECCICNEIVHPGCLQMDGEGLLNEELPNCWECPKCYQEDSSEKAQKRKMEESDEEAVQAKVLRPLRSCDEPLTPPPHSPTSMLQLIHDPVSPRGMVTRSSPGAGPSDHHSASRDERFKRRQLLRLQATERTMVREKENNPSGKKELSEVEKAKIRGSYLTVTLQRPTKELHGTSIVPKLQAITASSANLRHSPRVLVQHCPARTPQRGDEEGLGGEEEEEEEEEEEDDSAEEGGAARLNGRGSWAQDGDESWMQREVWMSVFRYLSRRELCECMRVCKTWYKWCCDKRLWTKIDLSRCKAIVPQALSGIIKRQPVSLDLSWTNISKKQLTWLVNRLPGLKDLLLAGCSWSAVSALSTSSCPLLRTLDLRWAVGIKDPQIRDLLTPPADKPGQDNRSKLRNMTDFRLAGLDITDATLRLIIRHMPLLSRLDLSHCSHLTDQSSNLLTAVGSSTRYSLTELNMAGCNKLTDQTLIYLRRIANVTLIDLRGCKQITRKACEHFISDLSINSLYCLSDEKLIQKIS

[2] = target: T2, Egl nine homolog 1 (Homo sapiens, UniProt Q9GZT9); experiment: Displacement of 2OG from catalytic domain of PHD2 (181 to 426) (unknown origin) Zn2 expressed in Escherichia coli at 150 uM
Target sequence in this assay (Q9GZT9 2-426 limits assumed): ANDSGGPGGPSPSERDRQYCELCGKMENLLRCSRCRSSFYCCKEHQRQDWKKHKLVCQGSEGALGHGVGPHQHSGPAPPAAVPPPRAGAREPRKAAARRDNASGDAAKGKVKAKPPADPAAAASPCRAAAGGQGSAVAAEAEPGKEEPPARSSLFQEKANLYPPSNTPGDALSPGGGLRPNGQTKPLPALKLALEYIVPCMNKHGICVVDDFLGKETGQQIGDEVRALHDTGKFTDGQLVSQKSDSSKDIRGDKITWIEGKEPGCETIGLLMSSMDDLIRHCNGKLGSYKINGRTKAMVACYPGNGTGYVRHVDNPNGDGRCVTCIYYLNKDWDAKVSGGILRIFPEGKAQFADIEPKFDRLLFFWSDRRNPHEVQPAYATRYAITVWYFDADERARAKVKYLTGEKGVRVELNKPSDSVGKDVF

[3] = target: T2, Egl nine homolog 1; experiment: Binding affinity to human PHD2 catalytic domain (181 to 426) Mn2 expressed in Escherichia coli by NMR spectroscopic analysis
Target sequence in this assay (Q9GZT9 whole entry, the tested form may be a part): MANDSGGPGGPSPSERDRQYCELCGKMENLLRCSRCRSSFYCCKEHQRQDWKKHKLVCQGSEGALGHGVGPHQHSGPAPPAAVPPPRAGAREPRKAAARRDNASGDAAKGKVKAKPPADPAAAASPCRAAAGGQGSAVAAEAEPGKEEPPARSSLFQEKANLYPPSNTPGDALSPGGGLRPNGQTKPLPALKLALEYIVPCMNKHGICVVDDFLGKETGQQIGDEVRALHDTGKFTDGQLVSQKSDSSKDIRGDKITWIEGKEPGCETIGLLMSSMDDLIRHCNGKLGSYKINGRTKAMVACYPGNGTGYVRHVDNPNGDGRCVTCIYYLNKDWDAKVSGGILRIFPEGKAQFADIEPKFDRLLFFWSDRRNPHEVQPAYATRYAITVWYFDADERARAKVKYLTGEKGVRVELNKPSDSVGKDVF

[4] = target: T2, Egl nine homolog 1; experiment: Inhibition of human PHD2 catalytic domain (181 to 426) Mn2 expressed in Escherichia coli by NMR spectroscopic analysis
Target sequence in this assay (Q9GZT9 whole entry, the tested form may be a part): as above

[5] = target: T2, Egl nine homolog 1; experiment: Displacement of [13C]-2OG from catalytic domain of PHD2 (181 to 426) (unknown origin) expressed in Escherichia coli
Target sequence in this assay (Q9GZT9 whole entry, the tested form may be a part): as above

[6] = Inhibition of human FIH catalytic domain Mn2 expressed in Escherichia coli by NMR spectroscopic analysis
[7] = (§1) Displacement of 2OG from FIH (unknown origin) expressed in Escherichia coli at 400 uM; details: Homo sapiens
[8] = Binding affinity to human FIH catalytic domain Mn2 expressed in Escherichia coli by NMR spectroscopic analysis
[9] = species on record: Homo sapiens; experiment: as §1
[10] = target: T2, Egl nine homolog 1; experiment: Inhibition of PHD2 (unknown origin)
Target sequence in this assay (Q9GZT9 whole entry, the tested form may be a part): as above

[11] = target: T2, Egl nine homolog 1; experiment: Displacement of 2OG from catalytic domain of PHD2 (181 to 426) (unknown origin) Zn2 expressed in Escherichia coli at 400 uM
Target sequence in this assay (Q9GZT9 2-426 limits assumed): as the sequence (Q9GZT9 2-426 limits assumed) above

**Q.** With `O=C(O)c1ccnc(C(=O)O)c1` as the molecule, how does the inhibition [1] read?
**A.** 70%

**Q.** For `O=C(O)/C=C/c1ccc(O)c(O)c1`, which inhibition [2] is on record?
**A.** inactive

**Q.** Which Kd [3] does the source give for `O=C(O)Cc1cs/c(=N\C(=O)CS(=O)(=O)Cc2ccc3ccccc3c2)n1O` here?
**A.** 0.1 µM

**Q.** And the IC50 [4]?
**A.** 0.02 µM

**Q.** And the Kd [5]?
**A.** 0.11 µM

**Q.** And the inhibition [1]?
**A.** 90%

**Q.** Which IC50 [6] does the source give for `O=C(O)c1ccc(O)c2ncccc12` here?
**A.** 20 µM

**Q.** What about the inhibition [7] of the same molecule?
**A.** 75%

**Q.** And the inhibition [1]?
**A.** 65%

**Q.** What about the Kd [8] of the same molecule?
**A.** 30 µM

**Q.** Which inhibition [9] does the source give for `O=C(O)CC(O)(CC(=O)O)C(=O)O` here?
**A.** inactive

**Q.** Which Kd [3] does the source give for `O=C(O)/C=C/C(=O)O` [FUMARIC ACID] here?
**A.** 200 µM

**Q.** And the IC50 [4]?
**A.** 220 µM

**Q.** With `O=C(O)c1ccc(O)c(O)c1` as the molecule, how does the inhibition [2] read?
**A.** inactive

**Q.** For `Oc1ccccc1O`, which inhibition [2] is on record?
**A.** inactive

**Q.** With `O=C(O)CCC(=O)O` as the molecule, how does the inhibition [9] read?
**A.** inactive

**Q.** What does the source list for `O=C(O)CNC(=O)c1nc(Cl)c2ccccc2c1O`?
**A.** IC50 [6]: > 25 µM; inhibition [7]: 55%; inhibition [1]: inactive; Kd [8]: 140 µM

**Q.** With `O=C(O)CC(O)C(=O)O` (stereo unspecified) as the molecule, how does the inhibition [9] read?
**A.** inactive

**Q.** Which IC50 [6] does the source give for `O=C(O)CNC(=O)C(=O)O` [N-OXALYLGLYCINE] here?
**A.** 50 µM

**Q.** What about the inhibition [7] of the same molecule?
**A.** 85%

**Q.** What about the inhibition [1] of the same molecule?
**A.** 30%

**Q.** What about the Kd [8] of the same molecule?
**A.** 4 µM

**Q.** With `CC(O)C(C)O` (stereo unspecified) as the molecule, how does the inhibition [2] read?
**A.** inactive

**Q.** What does the source list for `O=C(O)CC(C(=O)O)C(O)C(=O)O` (stereo unspecified) [ISOCITRATE]?
**A.** inhibition [9]: inactive; IC50 [10]: > 10000 µM

**Q.** With `O=C(c1ccccc1)c1ccc(O)c(O)c1` as the molecule, how does the inhibition [2] read?
**A.** inactive

**Q.** With `O=C(O)CNC(=O)c1ccc(B(O)O)cn1` as the molecule, how does the inhibition [11] read?
**A.** 50%

**Q.** For `CCOC(=O)c1ccc(O)c(O)c1`, which inhibition [2] is on record?
**A.** inactive
